This experiment concerns HCT-8 (human colon adenocarcinoma) cells. Nature of the experiment: in vitro activity against human colon adenocarcinoma (HCT-8), cell count. It is filed as cell-based. As to conditions: Homo sapiens; HCT-8 cells, 60-65 hrs with compound; molar quantity of drug required to kill 50% of the tumor cells; read-out: ID50 Molar. Put shortly: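 HCT-8 cells seeded at ~30,000 cells/ml in RPMI 1640 + 10% FCS, grown 48 hrs at 37°C, then exposed to compound 60-65 hrs. Lysed cells counted by Coulter counter; activity as percent of controls, reported as ID50 (molar quantity killing 50% of cells).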

For the compound `CCN(CC)CCn1nc2c3c(c(NCCNCCO)ccc31)C(=O)c1c(O)ccc(O)c1-2` [Example 28, 2-[2-(Diethylamino)ethyl]-7,10-dihydroxy-5-[[2-[(2-hydroxyethyl)amino]ethyl]amino]anthra[1,9-cd]pyrazol-6(2H)-one], the IC50 was 270 nM.

The record behind these values is patent EP0103381B1, “Substituted anthra(1,9-cd)pyrazol-6(2H)-ones” (WARNER-LAMBERT COMPANY, priority 1982, dated 1984).
